System: HCV pseudoparticles
Experiment: HCV pseudoparticle infection assay (luciferase reporter, Huh7 cells)
Format: cell-based, HCV (genotype 1b E1 and E2 envelope)
Conditions: Hepatitis C virus, genotype 1b, Huh-7, 48 h, HCV pseudoparticles (genotype 1b), luciferase activity 2 days after infection

| SMILES | EC50 (class) [nM] | EC50 [nM] |
| --- | --- | --- |
| CCS(=O)(=O)NC(=O)CCCCNC(=O)c1ccc(Nc2nc(NC3(c4ccc(Cl)cc4)CC3)nc(OCC(F)(F)F)n2)cc1 [Example 2014] | 0.5 to 100 |  |
| C=CS(=O)(=O)NC(=O)CCCCNC(=O)c1ccc(Nc2nc(NC3(c4ccc(Cl)cc4)CC3)nc(OCC(F)(F)F)n2)cc1 [Example 2015] | 0.5 to 100 |  |
| C=CS(=O)(=O)NC(=O)CCNC(=O)c1ccc(Nc2nc(NC3(c4ccc(Cl)cc4)CC3)nc(OCC(F)(F)F)n2)cc1 [Example 2016] | 0.5 to 100 |  |
| C=CS(=O)(=O)NC(=O)CCCNC(=O)c1ccc(Nc2nc(NC3(c4ccc(Cl)cc4)CC3)nc(OCC(F)(F)F)n2)cc1 [Example 2017] | 0.5 to 100 | 3.2 |
| CS(=O)(=O)NC(=O)CCNC(=O)c1ccc(Nc2nc(NC3(c4ccc(Cl)cc4)CC3)nc(OCC(F)(F)F)n2)cc1 [Example 2018] | 0.5 to 100 |  |
| CS(=O)(=O)NC(=O)CCCNC(=O)c1ccc(Nc2nc(NC3(c4ccc(Cl)cc4)CC3)nc(OCC(F)(F)F)n2)cc1 [Example 2019] | 0.5 to 100 |  |
| CC(C)S(=O)(=O)NC(=O)CCNC(=O)c1ccc(Nc2nc(NC3(c4ccc(Cl)cc4)CC3)nc(OCC(F)(F)F)n2)cc1 [Example 2020] | 0.5 to 100 |  |
| O=C(CCNC(=O)c1ccc(Nc2nc(NC3(c4ccc(Cl)cc4)CC3)nc(OCC(F)(F)F)n2)cc1)NS(=O)(=O)C1CC1 [Example 2021] | 0.5 to 100 |  |
| CN(C)S(=O)(=O)NC(=O)CCNC(=O)c1ccc(Nc2nc(NC3(c4ccc(Cl)cc4)CC3)nc(OCC(F)(F)F)n2)cc1 [Example 2022] | 0.5 to 100 |  |
| CC(C)S(=O)(=O)NC(=O)CCCNC(=O)c1ccc(Nc2nc(NC3(c4ccc(Cl)cc4)CC3)nc(OCC(F)(F)F)n2)cc1 [Example 2023] | 0.5 to 100 |  |
| O=C(CCCNC(=O)c1ccc(Nc2nc(NC3(c4ccc(Cl)cc4)CC3)nc(OCC(F)(F)F)n2)cc1)NS(=O)(=O)C1CC1 [Example 2024] | 0.5 to 100 |  |
| CN(C)S(=O)(=O)NC(=O)CCCNC(=O)c1ccc(Nc2nc(NC3(c4ccc(Cl)cc4)CC3)nc(OCC(F)(F)F)n2)cc1 [Example 2025] | 0.5 to 100 |  |
| C=C[C@@H]1C[C@]1(NC(=O)CCCCNC(=O)c1ccc(Nc2nc(NC3(c4ccc(Cl)cc4)CC3)nc(OCC(F)(F)F)n2)cc1)C(=O)NS(=O)(=O)C1CCC1 [Example 2026] | 0.5 to 100 |  |
| C=C[C@@H]1C[C@]1(NC(=O)CCCCNC(=O)c1ccc(Nc2nc(NC3(c4ccc(Cl)cc4)CC3)nc(OCC(F)(F)F)n2)cc1)C(=O)NS(=O)(=O)C(C)(C)C [Example 2027] | 0.5 to 100 |  |
| O=C(CCCCNC(=O)c1ccc(Nc2nc(NC3(c4ccc(Cl)cc4)CC3)nc(OCC(F)(F)F)n2)cc1)NS(=O)(=O)C1CCC1 [Example 2028] | 0.5 to 100 |  |
| O=C(CCCCNC(=O)c1ccc(Nc2nc(NC3(c4ccc(Cl)cc4)CC3)nc(OCC(F)(F)F)n2)cc1)NC1(C(=O)NS(=O)(=O)C2CC2)CC1 [Example 2029] | 0.5 to 100 |  |
| CN(C)S(=O)(=O)NC(=O)CCCCNC(=O)c1ccc(Nc2nc(NC3(c4ccc(Cl)cc4)CC3)nc(OCC(F)(F)F)n2)cc1 [Example 2030] | 0.5 to 100 |  |
| C=C[C@@H]1C[C@]1(NC(=O)CCCCNC(=O)c1ccc(Nc2nc(NC3(c4ccc(Cl)cc4)CC3)nc(OCC(F)(F)F)n2)cc1)C(=O)NS(=O)(=O)C1CC1 [Example 2031] | 0.5 to 100 |  |
| C=C[C@@H]1C[C@]1(NC(=O)CCCNC(=O)c1ccc(Nc2nc(NC3(c4ccc(Cl)cc4)CC3)nc(OCC(F)(F)F)n2)cc1)C(=O)NS(=O)(=O)C1CC1 [Example 2032] | 0.5 to 100 | 1.3 |
| O=C(CCCNC(=O)c1ccc(Nc2nc(NC3(c4ccc(Cl)cc4)CC3)nc(OCC(F)(F)F)n2)cc1)NC1(C(=O)NS(=O)(=O)C2CC2)CC1 [Example 2033] | 0.5 to 100 |  |
| C=C[C@@H]1C[C@]1(NC(=O)CCCNC(=O)c1ccc(Nc2nc(NC3(c4ccc(Cl)cc4)CC3)nc(OCC(F)(F)F)n2)cc1)C(=O)NS(=O)(=O)C(C)(C)C [Example 2035] | 0.5 to 100 |  |
| O=C(CCCNC(=O)c1ccc(Nc2nc(NC3(c4ccc(Cl)cc4)CC3)nc(OCC(F)(F)F)n2)cc1)N[C@]1(C(=O)NS(=O)(=O)C2CC2)C[C@H]1C1CC1 [Example 2036] | 0.5 to 100 |  |
| O=C(CCCNC(=O)c1ccc(Nc2nc(NC3(c4ccc(Cl)cc4)CC3)nc(OCC(F)(F)F)n2)cc1)N[C@]1(C(=O)NS(=O)(=O)C2CC2)C[C@H]1C1CC1(F)F (some centres unmarked) [Example 2037] | 0.5 to 100 |  |
| O=C(CCCNC(=O)c1ccc(Nc2nc(NC3(c4ccc(Cl)cc4)CC3)nc(OCC(F)(F)F)n2)cc1)N[C@]1(C(=O)NS(=O)(=O)C2CC2)C[C@H]1C(F)F [Example 2038] | 0.5 to 100 |  |
| CS(=O)(=O)NC(=O)[C@@]1(NC(=O)CCCNC(=O)c2ccc(Nc3nc(NC4(c5ccc(Cl)cc5)CC4)nc(OCC(F)(F)F)n3)cc2)C[C@H]1C1CC1 [Example 2039, 4-(4-(1-(4-chlorophenyl)cyclopropylamino)-6-(2,2,2-trifluoroethoxy)-1,3,5-triazin-2-ylamino)-N-(4-((1S,2R)-2-(methylsulfonylcarbamoyl)bi(cyclopropan)-2-ylamino)-4-oxobutyl)benzamide] | 0.5 to 100 |  |

| SMILES | EC50 (class) [nM] | EC50 [nM] |
| --- | --- | --- |
| C=CS(=O)(=O)NC(=O)[C@@]1(NC(=O)CCCNC(=O)c2ccc(Nc3nc(NC4(c5ccc(Cl)cc5)CC4)nc(OCC(F)(F)F)n3)cc2)C[C@H]1C1CC1 [Example 2040] | 0.5 to 100 |  |
| CC(C)S(=O)(=O)NC(=O)[C@@]1(NC(=O)CCCNC(=O)c2ccc(Nc3nc(NC4(c5ccc(Cl)cc5)CC4)nc(OCC(F)(F)F)n3)cc2)C[C@H]1C1CC1 [Example 2041] | 0.5 to 100 |  |
| O=C(CCCNC(=O)c1ccc(Nc2nc(NC3(c4ccc(Cl)cc4)CC3)nc(OCC(F)(F)F)n2)cc1)N[C@]1(C(=O)NS(=O)(=O)C2CCC2)C[C@H]1C1CC1 [Example 2042] | 0.5 to 100 |  |
| CN(C)S(=O)(=O)NC(=O)[C@@]1(NC(=O)CCCNC(=O)c2ccc(Nc3nc(NC4(c5ccc(Cl)cc5)CC4)nc(OCC(F)(F)F)n3)cc2)C[C@H]1C1CC1 [Example 2043] | 0.5 to 100 |  |
| O=C(CCCNC(=O)c1ccc(Nc2nc(NC3(c4ccc(Cl)cc4)CC3)nc(OCC(F)(F)F)n2)cc1)N[C@]1(C(=O)NS(=O)(=O)C2(F)CC2)C[C@H]1C1CC1 [Example 2044] | 0.5 to 100 |  |
| O=C(CCCNC(=O)c1ccc(Nc2nc(NC3(c4ccc(Cl)cc4)CC3)nc(OCC(F)(F)F)n2)cc1)N[C@]1(C(=O)NS(=O)(=O)C2(C(F)F)CC2)C[C@H]1C1CC1 [Example 2045] | 0.5 to 100 | 0.72 |
| CS(=O)(=O)NC(=O)[C@@]1(NC(=O)CCCNC(=O)c2ccc(Nc3nc(NC4(c5ccc(Cl)cc5)CC4)nc(OCC(F)(F)F)n3)cc2)C[C@H]1C1CC1(F)F (some centres unmarked) [Example 2046] | 0.5 to 100 |  |
| CCS(=O)(=O)NC(=O)[C@@]1(NC(=O)CCCNC(=O)c2ccc(Nc3nc(NC4(c5ccc(Cl)cc5)CC4)nc(OCC(F)(F)F)n3)cc2)C[C@H]1C1CC1(F)F (some centres unmarked) [Example 2047] | 0.5 to 100 |  |
| CC(C)S(=O)(=O)NC(=O)[C@@]1(NC(=O)CCCNC(=O)c2ccc(Nc3nc(NC4(c5ccc(Cl)cc5)CC4)nc(OCC(F)(F)F)n3)cc2)C[C@H]1C1CC1(F)F (some centres unmarked) [Example 2048] | 0.5 to 100 |  |
| CN(C)S(=O)(=O)NC(=O)[C@@]1(NC(=O)CCCNC(=O)c2ccc(Nc3nc(NC4(c5ccc(Cl)cc5)CC4)nc(OCC(F)(F)F)n3)cc2)C[C@H]1C1CC1(F)F (some centres unmarked) [Example 2049] | 0.5 to 100 |  |
| CC(C)(C)S(=O)(=O)NC(=O)[C@@]1(NC(=O)CCCNC(=O)c2ccc(Nc3nc(NC4(c5ccc(Cl)cc5)CC4)nc(OCC(F)(F)F)n3)cc2)C[C@H]1C1CC1(F)F (some centres unmarked) [Example 2050] | 0.5 to 100 |  |
| C[C@@H](NC(=O)CCCNC(=O)c1ccc(Nc2nc(NC3(c4ccc(Cl)cc4)CC3)nc(OCC(F)(F)F)n2)cc1)C(=O)NS(C)(=O)=O [Example 2051, (R)-4-(4-(1-(4-chlorophenyl)cyclopropylamino)-6-(2,2,2-trifluoroethoxy)-1,3,5-triazin-2-ylamino)-N-(4-(1-(methylsulfonamido)-1-oxopropan-2-ylamino)-4-oxobutyl)benzamide] | 0.5 to 100 |  |
| CC(C)S(=O)(=O)NC(=O)[C@@H](C)NC(=O)CCCNC(=O)c1ccc(Nc2nc(NC3(c4ccc(Cl)cc4)CC3)nc(OCC(F)(F)F)n2)cc1 [Example 2052] | 0.5 to 100 |  |
| C[C@@H](NC(=O)CCCNC(=O)c1ccc(Nc2nc(NC3(c4ccc(Cl)cc4)CC3)nc(OCC(F)(F)F)n2)cc1)C(=O)NS(=O)(=O)C1CC1 [Example 2053] | 0.5 to 100 |  |
| C[C@H](NC(=O)CCCNC(=O)c1ccc(Nc2nc(NC3(c4ccc(Cl)cc4)CC3)nc(OCC(F)(F)F)n2)cc1)C(=O)NS(C)(=O)=O [Example 2054] | 0.5 to 100 |  |
| CC(C)S(=O)(=O)NC(=O)[C@H](C)NC(=O)CCCNC(=O)c1ccc(Nc2nc(NC3(c4ccc(Cl)cc4)CC3)nc(OCC(F)(F)F)n2)cc1 [Example 2055] | 0.5 to 100 |  |
| C[C@H](NC(=O)CCCNC(=O)c1ccc(Nc2nc(NC3(c4ccc(Cl)cc4)CC3)nc(OCC(F)(F)F)n2)cc1)C(=O)NS(=O)(=O)N(C)C [Example 2056] | 0.5 to 100 |  |
| C[C@H](NC(=O)CCCNC(=O)c1ccc(Nc2nc(NC3(c4ccc(Cl)cc4)CC3)nc(OCC(F)(F)F)n2)cc1)C(=O)NS(=O)(=O)C1CC1 [Example 2057] | 0.5 to 100 |  |
| C[C@H](NC(=O)CCCNC(=O)c1ccc(Nc2nc(NC3(c4ccc(Cl)cc4)CC3)nc(OCC(F)(F)F)n2)cc1)C(=O)NS(=O)(=O)C1CCC1 [Example 2058] | 0.5 to 100 |  |
| CS(=O)(=O)NC(=O)CCNC(=O)CCCNC(=O)c1ccc(Nc2nc(NC3(c4ccc(Cl)cc4)CC3)nc(OCC(F)(F)F)n2)cc1 [Example 2059] | 0.5 to 100 |  |
| CN(C)S(=O)(=O)NC(=O)CCNC(=O)CCCNC(=O)c1ccc(Nc2nc(NC3(c4ccc(Cl)cc4)CC3)nc(OCC(F)(F)F)n2)cc1 [Example 2060] | 0.5 to 100 |  |
| CC(C)S(=O)(=O)NC(=O)CCNC(=O)CCCNC(=O)c1ccc(Nc2nc(NC3(c4ccc(Cl)cc4)CC3)nc(OCC(F)(F)F)n2)cc1 [Example 2061] | 0.5 to 100 |  |
| O=C(CCCNC(=O)c1ccc(Nc2nc(NC3(c4ccc(Cl)cc4)CC3)nc(OCC(F)(F)F)n2)cc1)NCCC(=O)NS(=O)(=O)C1CC1 [Example 2062] | 0.5 to 100 |  |
| O=C(CCCNC(=O)c1ccc(Nc2nc(NC3(c4ccc(Cl)cc4)CC3)nc(OCC(F)(F)F)n2)cc1)NCCC(=O)NS(=O)(=O)C1CCC1 [Example 2063] | 0.5 to 100 | 37.9 |

Reference: patent publication US8765944B2, “Compounds for the treatment of hepatitis C” (priority 2010, dated 2014)
